Assay results as given in patent US8148367B2 (Takeda Pharmaceutical Company Limited, priority 2008, dated 2012).

Molecular target: T1, Recombinant human renin (Homo sapiens, UniProt P00797)
T1 construct: isolate the active form (residues 67-406); made in house; host or cells: FreeStyle 293-F cells, transient expression of pcDNA3.1(+)/hREN
T1 sequence (P00797 67-406): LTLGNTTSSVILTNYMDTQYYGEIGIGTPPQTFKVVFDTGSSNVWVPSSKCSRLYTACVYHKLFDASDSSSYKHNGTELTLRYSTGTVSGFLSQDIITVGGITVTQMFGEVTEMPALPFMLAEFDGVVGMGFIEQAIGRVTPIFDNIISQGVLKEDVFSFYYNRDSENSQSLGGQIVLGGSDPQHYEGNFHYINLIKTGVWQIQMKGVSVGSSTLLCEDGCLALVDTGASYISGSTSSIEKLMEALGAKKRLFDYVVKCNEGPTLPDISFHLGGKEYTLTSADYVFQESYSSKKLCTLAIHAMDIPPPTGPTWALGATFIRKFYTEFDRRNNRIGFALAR
Experiment: In vitro enzymatic activity assay of renin inhibitors (fluorescence, QXL520/HiLyteFluo488 peptide substrate)
Type: biochemical
Conditions: recombinant human renin 3 nM, 1 μM substrate, pre-incubated 10 minutes at 37° C., incubation one hour, pH 7.4, 5% DMSO; read-out: IC50 of Exemplified Compounds Against Renin

COc1ccccc1-n1c(-c2ccccc2)c(C(=O)N2CCNCC2)n(Cc2ccc(F)c(F)c2)c1=O [Example 148, 1-(3,4-Difluorobenzyl)-3-(2-methoxyphenyl)-4-phenyl-5-(piperazine-1-carbonyl)-1H-imidazol-2(3H)-one]
IC50: > 1000 nM

O=C(c1c(-c2ccccc2)n(-c2cccc(N3CCOCC3)c2)c(=O)n1Cc1cccc(OCc2ccccc2)c1)N1CCNCC1 [Example 76, 1-(3-(Benzyloxy)benzyl)-3-(3-morpholinophenyl)-4-phenyl-5-(piperazine-1-carbonyl)-1H-imidazol-2(3H)-one]
IC50: < 100 nM

Cc1ccccc1-n1c(-c2ccccc2)c(C(=O)N2CCNCC2)n(CCNC(=O)Nc2ccc(Cl)cc2)c1=O [Example 213, 1-(4-Chlorophenyl)-3-(2-(2-oxo-4-phenyl-5-(piperazine-1-carbonyl)-3-o-tolyl-2,3-dihydro-1H-imidazol-1-yl)ethyl)urea]
IC50: 100 to 500 nM

Cn1c(C(=O)N2CCNCC2)c(-c2ccccc2)n(-c2ccccc2)c1=O [Example 54, 1-Methyl-3,4-diphenyl-5-(piperazine-1-carbonyl)-1H-imidazol-2(3H)-one]
IC50: > 1000 nM

O=C(c1c(-c2ccccc2)n(-c2cccc(N3CCOCC3)c2)c(=O)n1Cc1ccccc1)N1CCNCC1 [Example 56, 1-Benzyl-3-(3-morpholinophenyl)-4-phenyl-5-(piperazine-1-carbonyl)-1H-imidazol-2(3H)-one]
IC50: 100 to 500 nM

O=C(c1c(-c2ccccc2)n(C2CCOCC2)c(=O)n1Cc1ccccc1)N1CCNCC1 [Example 81, 1-Benzyl-4-phenyl-5-(piperazine-1-carbonyl)-3-(tetrahydro-2H-pyran-4-yl)-1H-imidazol-2(3H)-one]
IC50: > 1000 nM

O=C(c1[nH]c(=O)n(-c2ccccc2NS(=O)(=O)C2CC2)c1-c1ccccc1)N1CCNC[C@H]1Cc1ccccc1 [Example 123, (R)—N-(2-(4-(2-Benzylpiperazine-1-carbonyl)-2-oxo-5-phenyl-2,3-dihydro-1H-imidazol-1-yl)phenyl)cyclopropanesulfonamide]
IC50: 100 to 500 nM

O=C(c1c(-c2ccccc2)n(-c2ccccc2)c(=O)n1Cc1cccc2cccnc12)N1CCNCC1 [Example 82, 1,5-Diphenyl-4-(piperazine-1-carbonyl)-3-(quinolin-8-ylmethyl)-1H-imidazol-2(3H)-one]
IC50: > 1000 nM

COc1cccc(Cn2c(C(=O)N3CCNCC3)c(-c3ccccc3)n(-c3cccc(N4CCOCC4)c3)c2=O)c1 [Example 151, 1-(3-Methoxybenzyl)-3-(3-morpholinophenyl)-4-phenyl-5-(piperazine-1-carbonyl)-1H-imidazol-2(3H)-one]
IC50: 100 to 500 nM

O=C(c1[nH]c(=O)n(-c2ccccc2)c1-c1cccc(F)c1)N1CCNCC1 [Example 21, 5-(3-Fluorophenyl)-1-phenyl-4-(piperazine-1-carbonyl)-1H-imidazol-2(3H)-one]
IC50: > 1000 nM

CCCCN1CCCc2ccc(-n3c(C4CC4)c(C(=O)N4CCNC[C@H]4Cc4ccccc4)[nH]c3=O)cc21 [Example 133, (R)-4-(2-Benzylpiperazine-1-carbonyl)-1-(1-butyl-1,2,3,4-tetrahydroquinolin-7-yl)-5-cyclopropyl-1H-imidazol-2(3H)-one]
IC50: > 1000 nM

O=C(c1c(-c2ccccc2)n([C@H]2CCCC[C@H]2O)c(=O)n1CC1CCCCC1)N1CCNCC1 [Example 157, 1-(Cyclohexylmethyl)-3-((1S,2R)-2-hydroxycyclohexyl)-4-phenyl-5-(piperazine-1-carbonyl)-1H-imidazol-2(3H)-one]
IC50: > 1000 nM

O=C(c1c(-c2ccccc2)n([C@H]2CCCC[C@H]2O)c(=O)n1Cc1ccc(F)c(F)c1)N1CCNCC1 [Example 154, 1-(3,4-Difluorobenzyl)-3-((1S,2R)-2-hydroxycyclohexyl)-4-phenyl-5-(piperazine-1-carbonyl)-1H-imidazol-2(3H)-one]
IC50: > 1000 nM

COc1ccccc1C(=O)NCCCn1c(C(=O)N2CCNCC2)c(-c2ccccc2)n(-c2ccccc2C)c1=O [Example 244, 2-Methoxy-N-(3-(2-oxo-4-phenyl-5-(piperazine-1-carbonyl)-3-o-tolyl-2,3-dihydro-1H-imidazol-1-yl)propyl)benzamide]
IC50: > 1000 nM

COc1ccccc1-n1c(-c2ccccc2)c(C(=O)N2CCNCC2)n(Cc2cccc(Oc3ccccc3)c2)c1=O [Example 146, 1-(2-Methoxyphenyl)-3-(3-phenoxybenzyl)-5-phenyl-4-(piperazine-1-carbonyl)-1H-imidazol-2(3H)-one]
IC50: 100 to 500 nM

COc1ccc(-c2cc(Cn3c(C(=O)N4CCNCC4)c(-c4ccccc4)n(C4CCCCC4)c3=O)cc(N(C)C)n2)cn1 [Example 17H, 1-cyclohexyl-3-((6-(dimethylamino)-6′-methoxy-2,3′-bipyridin-4-yl)methyl)-5-phenyl-4-(piperazine-1-carbonyl)-1H-imidazol-2(3H)-one]
IC50: 100 to 500 nM

O=C(c1[nH]c(=O)n(-c2ccccc2)c1-c1ccccc1)N1CCNCC1 [Example 18, 1,5-Diphenyl-4-(piperazine-1-carbonyl)-1H-imidazol-2(3H)-one]
IC50: > 1000 nM

O=C(c1c(-c2ccccc2)n(C2CCCN(S(=O)(=O)c3ccccn3)C2)c(=O)n1Cc1ccccc1)N1CCNCC1 (stereo not drawn) [Example 101, 1-Benzyl-4-phenyl-5-(piperazine-1-carbonyl)-3-(1-(pyridin-2-ylsulfonyl)piperidin-3-yl)-1H-imidazol-2(3H)-one]
IC50: > 1000 nM

Cc1ccccc1-n1c(-c2ccccc2)c(C(=O)N2CCNCC2)n(CCNC(=O)c2ccccc2)c1=O [Example 166, N-(2-(2-oxo-4-Phenyl-5-(piperazine-1-carbonyl)-3-o-tolyl-2,3-dihydro-1H-imidazol-1-yl)ethyl)benzamide]
IC50: 500 to 1000 nM

O=C(NCCCn1c(C(=O)N2CCNCC2)c(-c2ccccc2)n(C2CCCC[C@@H]2O)c1=O)c1ccccc1 (stereo partly drawn) [Example 170, N-(3-(3-((2S)-2-Hydroxycyclohexyl)-2-oxo-4-phenyl-5-(piperazine-1-carbonyl)-2,3-dihydro-1H-imidazol-1-yl)propyl)benzamide]
IC50: > 1000 nM

Cc1ccccc1-n1c(-c2ccccc2)c(C(=O)N2CCNCC2)n(CCNC(=O)C2CCCCC2)c1=O [Example 237, N-(2-(2-oxo-4-phenyl-5-(piperazine-1-carbonyl)-3-o-tolyl-2,3-dihydro-1H-imidazol-1-yl)ethyl)cyclohexanecarboxamide]
IC50: > 1000 nM

O=C(c1c(-c2ccccc2)n(-c2ccccc2)c(=O)n1Cc1ccc2ccccc2c1)N1CCNCC1 [Example 84, 1-(Naphthalen-2-ylmethyl)-3,4-diphenyl-5-(piperazine-1-carbonyl)-1H-imidazol-2(3H)-one]
IC50: 100 to 500 nM

COC(=O)C(c1ccccc1)n1c(C(=O)N2CCNCC2)c(-c2ccccc2)n(C2CCCCC2)c1=O (stereo not drawn) [Example 68, Methyl 2-(3-cyclohexyl-2-oxo-4-phenyl-5-(piperazine-1-carbonyl)-2,3-dihydro-1H-imidazol-1-yl)-2-phenylacetate]
IC50: > 1000 nM

O=C(Nc1ccccc1-n1c(-c2ccccc2)c(C(=O)N2CCNC[C@H]2Cc2ccccc2)[nH]c1=O)c1ccccc1 [Example 124, (R)—N-(2-(4-(2-Benzylpiperazine-1-carbonyl)-2-oxo-5-phenyl-2,3-dihydro-1H-imidazol-1-yl)phenyl)benzamide]
IC50: < 100 nM
